This is an account of results in patent publication US4650804A, “Quinolizinone compounds and pharmaceutical composition comprising the same, useful as anti-ulcerative and anti-allergic agents” (Fujisawa Pharmaceutical Co., Ltd., priority 1984, dated 1987).

Test [1] can be described thus: Effect on passive cutaneous anaphylaxis (PCA). Type of test: in vivo, female Sprague-Dawley rats. Conditions: intravenously with the antigen. As for the experimental part: (B) Effect on passive cutaneous anaphylaxis (pCA).
Recipient animals for PCA reactions were female Sprague-Dawley rats, 7 weeks old, 180 g-200 g (Nihon Kurea). Each experiment included 5 observations.
Five times crystallized ovalbumin (OVA) (Sigma Lot, 31F-8061) was used as antigen.
Female BDFl mice, 7 weeks old (Nihon Kurea), were given a primary injection (left foot pad, s.c.) of 100 mcg OVA in 0.05 ml saline and after 20 days a booster injection by the same route. Blood was collected 28 days after the primary injection and the sera were stored at -80° C.
The animals were shared with an electric clipper in advance and prepared for Passive Cutaneous Anaphylaxis (PCA) by injecting 0.05 ml of mouse antiserum dilutions (1/16, 1/32) in each side of the dorsal skin.
They were then challenged 48 hours later with an intravenous injection of 1 ml of 0.5% Evans Blue containing 5 mg OVA. Fifty minutes later, they were killed and the lesions (diameter) measured.
A minimal skin response was one with a 5 mm or greater diameter blue spot measured on the dermal side of reflected skin. Drug activity was estimated using the following formula; [formula]
Drugs were suspended in 0.1% methyl cellulose/saline and given intravenously with the antigen.

Test [2] in a line: Inhibition on stress ulcer. The class given is in vivo, Sprague-Dawley rats. Conditions: 32 mg/kg, oral, 22° C. water bath, 7 hours; for Ulcer index Mean ± S. E. / Ulcer index (individual animals): just before immobilization; for Ulcer index Mean ± S. E.: 5 animals; for Ulcer index (individual animals): single animals No. 1-5; for Inh. %: ulcer index inhibition vs control. The procedure:
(A) Inhibition on stress ulcer
Sprague-Dawley rats weighing about 200 g were used. Each animal was immobilized in a small cage and put in a water bath allowing to respire. The temperature of the water bath kept at 22° C. The test compound .circle.A and .circle.B were administered orally just before the immobilization. Seven hours later, the animals were sacrificed and their stomachs were removed. The stomach was then fixed with 2% formalin. The area of ulcers was measured for each animal. The mean area (mm^2) in the test animals was compared with that in the control animals.

Values joined by “and” are separate entries in the source; they are usually repeats but may differ in a detail not shown here. Equal values may be shown once.

For `O=C(Nc1nn[nH]n1)c1ccc2ccccn2c1=O` [Compound .circle.A, N-[5-(1H-Tetrazolyl)]-4H-quinolizin-4-one-3-carboxamide], the “Inhibition (%)” value is given as 97.2% in test [1] (1 mg/kg, Antiserum concentration 1/16); 100% in test [1] (1 mg/kg, Antiserum concentration 1/32); 94.5% in test [1] (10 mg/kg, Antiserum concentration 1/16); 100% in test [1] (10 mg/kg, Antiserum concentration 1/32). In addition, in test [2], the “Ulcer index Mean ± S. E.” value is 6.2 ± 3.0 mm^2. Also, the “Ulcer index (individual animals)” value in test [2] was 18 mm^2 and 5 mm^2 and 3 mm^2 and 4 mm^2 and 1 mm^2. The same compound yielded an Inh. % in test [2] of 67.7%.

For the compound `O=C(Nc1nn[nH]n1)c1cc(-c2ccccc2)c2ccccn2c1=O` [Compound .circle.B, N-[5-(1H-Tetrazolyl)]-1-phenyl-4H-quinolizin-4-one-3-carboxamide], in test [2], the “Ulcer index Mean ± S. E.” value worked out at 8.4 ± 1.9 mm^2; the “Ulcer index (individual animals)” value was 10 mm^2 and 11 mm^2 and 3 mm^2 and 5 mm^2; the Inh. % was 83.7%.
